Activity calls are given as the source filed them. No cut-off for these calls is given here.
Assays:
[1] = biological target: T1, Tumor necrosis factor ligand superfamily member 11 (Homo sapiens) (UniProt O14788); test: (§1) Inhibition of RANKL (unknown origin) in RANKL cultured mouse RAW264.7 cells assessed as reduction in RANKL/RANK-interaction mediated NFATc1 expression at 2 to 10 uM preincubated for 1 hr followed by cell culture addition and measured after 2 days by Western blot analysis; format: cell-based; conditions: dose microM 2-10, time 49.0 hrs
T1 sequence (whole entry): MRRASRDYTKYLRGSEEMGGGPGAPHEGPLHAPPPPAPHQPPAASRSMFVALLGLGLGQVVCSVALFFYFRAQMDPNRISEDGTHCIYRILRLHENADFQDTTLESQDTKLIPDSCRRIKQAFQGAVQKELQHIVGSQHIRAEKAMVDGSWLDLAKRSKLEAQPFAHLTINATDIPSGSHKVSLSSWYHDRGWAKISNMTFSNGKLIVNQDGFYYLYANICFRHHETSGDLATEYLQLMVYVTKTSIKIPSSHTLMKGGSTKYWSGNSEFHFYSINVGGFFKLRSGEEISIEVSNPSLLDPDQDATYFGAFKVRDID

[2] = biological target: T1, Tumor necrosis factor ligand superfamily member 11 (Homo sapiens); test: Inhibition of human RANKL-induced osteoclastogenesis in RANKL cultured mouse bone marrow cells assessed as reduction in RANKL/M-CSF-induced TRAP activity at 5 uM preincubated with RANKL for 1 hr followed by cell addition and subsequent media replenishment every 48 hrs for 4 days; format: cell-based; conditions: time 4.0 day
[3] = Effect on osteoblast differentiation in mouse MC3T3-E1 cells assessed as change in ALP activity at 2 to 10 uM with media replenishment every 3 days for 14 days; format: ADME, cell-based; conditions: mc3t3-e1, 336 h, dose 2-10 µM, time 14 day
[4] = biological target: T1, Tumor necrosis factor ligand superfamily member 11 (Homo sapiens); test: (§2) Inhibition of human RANKL-induced osteoclastogenesis in RANKL cultured mouse bone marrow cells assessed as reduction in RANKL/M-CSF-induced TRAP activity preincubated with RANKL for 1 hr followed by cell addition and subsequent media replenishment every 48 hrs for 4 days; format: cell-based; conditions: time 4.0 day
[5] = Therapeutic index, ratio of LC50 for mouse bone marrow cells to IC50 for Inhibition of human RANKL-induced osteoclastogenesis in RANKL cultured mouse bone marrow cells; format: toxicity; conditions: read-out: Ratio LC50/IC50
[6] = Cytotoxicity against mouse BMMC assessed as reduction in cell viability measured after 48 hrs by MTT assay; format: cell-based; conditions: mouse BMMC (bone marrow cells), read-out: LC50
[7] = biological target: T1, Tumor necrosis factor ligand superfamily member 11 (Homo sapiens); test: (§3) Inhibition of RANKL (unknown origin) in RANKL cultured mouse RAW264.7 cells assessed as reduction in RANKL/RANK-interaction mediated cFOS expression at 2 to 10 uM preincubated for 1 hr followed by cell culture addition and measured after 2 days by Western blot analysis; format: cell-based; conditions: dose microM 2-10, time 49.0 hrs
[8] = biological target: T2, Tumor necrosis factor ligand superfamily member 11 (Homo sapiens, UniProt O14788); test: Binding affinity to GST-fused human RANKL extracellular domain (Lys159 to Asp317 residues) expressed in Escherichia coli BL21(DE3) pLysS by fluorescence spectrophotometric assay; conditions: read-out: Kd
T2 sequence (O14788 whole entry): T1 sequence (whole entry)

[9] = biological target: T1, Tumor necrosis factor ligand superfamily member 11 (Homo sapiens); test: Potency index, ratio of SPD-304 Kd to test compound Kd for binding affinity to GST-fused human RANKL extracellular domain (Lys159 to Asp317 residues) expressed in Escherichia coli BL21(DE3) pLysS by fluorescence spectrophotometric assay
[10] = biological target: T1, Tumor necrosis factor ligand superfamily member 11 (Homo sapiens); test: Inhibition of human soluble RANKL trimerization assessed as increase in RANKL monomer level preincubated for 1 hr followed by DSS addition and measured after 1 hr by SDS-PAGE analysis; conditions: time 2.0 hrs
[11] = biological target: T1, Tumor necrosis factor ligand superfamily member 11 (Homo sapiens); test: (§4) Inhibition of human RANKL-induced osteoclastogenesis in RANKL cultured mouse bone marrow cells assessed as reduction in RANKL/M-CSF-induced TRAP activity at 5 to 10 uM preincubated with RANKL for 1 hr followed by cell addition and subsequent media replenishment every 48 hrs for 4 days; format: cell-based; conditions: dose microM 5-10, time 4.0 day
[12] = biological target: T1, Tumor necrosis factor ligand superfamily member 11 (Homo sapiens); test: as §4, with “phalloidin-labeled actin ring formation” for “RANKL/M-CSF-induced TRAP activity”, “days by Alexa Fluor 488-conjugated phalloidin/DAPI-staining based fluorescence microscopic analysis” for “days”; conditions: dose microM 5-10, time 4.0 day
[13] = biological target: T1, Tumor necrosis factor ligand superfamily member 11 (Homo sapiens); test: Inhibition of human soluble RANKL trimerization assessed as increase in RANKL monomer level at 1:3 to 1:10 ratio of DSS to RANKL preincubated for 1 hr followed by DSS addition and measured after 1 hr by SDS-PAGE analysis; conditions: time 2.0 hrs
BMMC = test: Cytotoxicity against mouse BMMC assessed as reduction in cell viability at 5 uM measured after 48 hrs by MTT assay; format: cell-based
[14] = biological target: T1, Tumor necrosis factor ligand superfamily member 11 (Homo sapiens); test: as §1, with “expression by measuring NFATc1 protein expression” for “expression”, “2” for “2 to 10”, “analysis relative to positive control (reference value: 1)” for “analysis”; format: cell-based; conditions: time 49.0 hrs
[15] = biological target: T1, Tumor necrosis factor ligand superfamily member 11 (Homo sapiens); test: as §1, with “expression by measuring NFATc1 protein expression” for “expression”, “at” for “at 2 to”, “analysis relative to positive control (reference value: 1)” for “analysis”; format: cell-based; conditions: time 49.0 hrs
[16] = biological target: T1, Tumor necrosis factor ligand superfamily member 11 (Homo sapiens); test: as §2, with “phalloidin-labeled actin ring formation” for “RANKL/M-CSF-induced TRAP activity”, “days by Alexa Fluor 488-conjugated phalloidin/DAPI-staining based fluorescence microscopic analysis” for “days”
[17] = biological target: T1, Tumor necrosis factor ligand superfamily member 11 (Homo sapiens); test: as §1, with “expression by measuring NFATc1 protein expression” for “expression”, “5” for “2 to 10”, “analysis relative to positive control (reference value: 1)” for “analysis”; format: cell-based; conditions: time 49.0 hrs
[18] = biological target: T1, Tumor necrosis factor ligand superfamily member 11 (Homo sapiens); test: as §3, with “expression by measuring cFOS protein expression” for “expression”, “5” for “2 to 10”, “analysis relative to positive control (reference value: 1)” for “analysis”; format: cell-based; conditions: time 49.0 hrs
[19] = biological target: T1, Tumor necrosis factor ligand superfamily member 11 (Homo sapiens); test: as §3, with “expression by measuring cFOS protein expression” for “expression”, “2” for “2 to 10”, “analysis relative to positive control (reference value: 1)” for “analysis”; format: cell-based; conditions: time 49.0 hrs
[20] = biological target: T1, Tumor necrosis factor ligand superfamily member 11 (Homo sapiens); test: Inhibition of human soluble RANKL trimerization assessed as increase in RANKL monomer level at 1:3 ratio of DSS to RANKL preincubated for 1 hr followed by DSS addition and measured after 1 hr by SDS-PAGE analysis; conditions: time 2.0 hrs
[21] = biological target: T1, Tumor necrosis factor ligand superfamily member 11 (Homo sapiens); test: as §3, with “expression by measuring cFOS protein expression” for “expression”, “at” for “at 2 to”, “analysis relative to positive control (reference value: 1)” for “analysis”; format: cell-based; conditions: time 49.0 hrs

Structure (SMILES) | inhibition [2] | Activity [3] | inhibition [4] | selectivity ratio [5] | CC50 at 48 h [6] | Kd [8] | Ratio [9] | also measured
CN(CCN(C)C(=O)c1cn(S(=O)(=O)c2ccccc2)c2ccccc12)C(=O)c1coc2ccccc2c1=O | 100% | Non-Toxic | Dose-dependent effect | 21.8 | 62.3 µM | 4.6 µM | 3 | inhibition [1]: Active; inhibition [7]: Active
CN(CCN(C)Cc1cn(S(=O)(=O)c2ccccc2)c2ccccc12)Cc1coc2ccccc2c1=O | 100% | Non-Toxic | Dose-dependent effect | 23.4 | 58.5 µM | 5.24 µM | 2.7 | inhibition [10]: Dose-dependent effect; inhibition [11]: Active; inhibition [12]: Active
Cc1cc2occ(CN(C)CCN(C)Cc3cn(-c4cccc(C(F)(F)F)c4)c4ccccc34)c(=O)c2cc1C |  |  | Dose-dependent effect | 3.2 | 3.2 µM |  |  | inhibition [13]: Active; Activity (BMMC): Toxic
CN(CCN(C)C(=O)c1cn(-c2cccc([N+](=O)[O-])c2)c2ccccc12)C(=O)c1coc2ccccc2c1=O | 100% | Non-Toxic | Dose-dependent effect | 27.8 | 44.2 µM | 2.18 µM |  | fold change (FC) [14]: 0.66; fold change (FC) [15]: 0.39; inhibition [16]: Dose-dependent effect; fold change (FC) [17]: 0.52; fold change (FC) [18]: 0.56; fold change (FC) [19]: 0.58; inhibition [20]: Active; fold change (FC) [21]: 0.48

— ChEMBL document CHEMBL4665827, “Discovery of Small-Molecule Inhibitors of Receptor Activator of Nuclear Factor-κB Ligand with a Superior Therapeutic Index” (J Med Chem, 2020)
